Test results published in US20180296531A1, “STIMULATION OF 11B-HSD2 EXPRESSION TO IMPROVE HORMONAL THERAPY OF STEROID-DEPENDENT DISEASE” (THE CLEVELAND CLINIC FOUNDATION, priority 2015, published 2018).

Tested on: PSA, KLF9, PMEPA1 expression
Assay: Steroid-induced gene expression (PSA, KLF9, PMEPA1) by qPCR in long-term Enz-treated LAPC4 cells
Assay type: cell-based, human
Details: LAPC4 treated with Enz 36 days, steroid 24 hours
Procedure: LAPC4 cells were treated with Enz for 36 days and then seeded into 12 well plates coated with poly-DL-ornithine at 50% confluence. […] Total RNA was extracted with a GenElute Mammalian Total RNA miniprep kit (Sigma-Aldrich) and 1 μg RNA was reverse-transcribed to cDNA with the iScript cDNA Synthesis Kit (Bio-Rad). An ABI 7500 Real-Time PCR machine (Applied Biosystems) was used to perform the qPCR analysis, using iTaq Fast SYBR Green Supermix with ROX (Bio-Rad) in 96-well plates at a final reaction volume of 10 μl. The qPCR analysis was carried out in triplicate with suitable primers. Each mRNA transcript was quantitated by normalizing the sample values to RPLP0 and to vehicle treated cells (for steroid treated cells). All gene expression studies were repeated in independent experiments.

SMILES	PMEPA1 expression	KLF9 expression	PSA expression
C[C@]12CCC(=O)C[C@@H]1CC[C@@H]1[C@@H]2CC[C@]2(C)[C@@H](O)CC[C@@H]12 [DHT, 5α-dihydrotestosterone]	induced with DHT only		
C[C@]12CCC(=O)C=C1CC[C@@H]1[C@@H]2[C@@H](O)C[C@@]2(C)[C@H]1CC[C@]2(O)C(=O)CO [cortisol]		induced	cortisol induction of PSA expression
